Assays:
[1] = target: T1, APOBEC3A (Homo sapiens, UniProt P31941); assay: In vitro SDHB RNA editing assay with purified APOBEC3A; assay type: biochemical; settings: chelation of zinc with 10 μM 1,10-phenanthroline, 2 hours at 37° C
T1 construct: made in house; host or cells: Rosetta 2(DE3)pLysS E. coli; pET21 construct from Dr. Jinwoo Ahn
Protocol: Rosetta™ 2(DE3)pLysS E. coli (EMD Millipore®) transformed with a bacterial expression construct for C-His6-tagged APOBEC3A and grown in Luria broth at 37° C. were induced for expression of the recombinant protein with 0.3 mM isopropyl β-D-1-thiogalactopyranoside (IPTG) and cultured overnight at 18° C. Harvested cells were lysed with a French pressure cell (American Instrument Corporation®, Hartland, Wis.) and Ni-NTA His.Bind Resin™ (EMD Millipore®) was used as per manufacturer's instructions to purify APOBEC3A protein from the lysates by affinity chromatography. Isolated protein was concentrated using an Amicon™ Ultra-4 Centrifugal Filter Unit with Ultracel-3 membrane (EMD Millipore®; nominal molecular weight limit of 3 kDa). The concentrated protein was stored in 25 mM Tris (pH 8.0) with 50 mM NaCl, 1 mM DTT, 5% v/v glycerol, and 0.02% w/v sodium azide.
Whole cell lysates of 293T transfectants were prepared using lysis buffer containing 0.2% Surfact-Amps™ NP-40 (Thermo Fisher®), 30 mM 4-(2-hydroxyethyl)-1-piperazine-ethane-sulfonic acid (HEPES; pH 7.5), 100 mM KCl, 25 mM NaCl, 1.5 mM MgCl2, 1 mM DTT, and 0.5× Halt™ protease and phosphatase inhibitor cocktail, and stored with 10% v/v glycerol at −80° C. […]

[2] = tested on: HuT78 cells; assay: TM7SF3 C>U RNA editing in HuT78 cells treated with mitochondrial inhibitors or thapsigargin; assay type: cell-based, human; settings: HuT78, normoxia; for RNA editing level (TM7SF3): 0.5×10^6 cells per 500 μl, inhibitor 1 μM
Source text: We tested the effect of inhibitors of mitochondrial complex II by atpenin A5 (AtA5) and of the complex III by myxothiazol (MXT) on RNA editing in HuT78 cells cultured in normoxia. Additionally, to test whether endoplasmic reticulum (ER) stress can also induce RNA editing, we treated the cells with Thapsigargin (Tg). Tg is considered to induce ER stress by raising intracellular calcium levels and lowers the ER calcium levels by specifically inhibiting the endoplasmic reticulum Ca^++ ATPase, resulting in the accumulation of unfolded proteins and an increased accumulation eIF-2α phosphorylated at Ser 51 (FIGS. 33c and 35b). To test the effect of hypoxic stress alone on HuT78 cells, we reduced the cell density to avoid cellular crowding and cultured the cells at an intermediate density of 0.5×10^6 cells per 500 μl per well in 24 well plates with or without the chemical inhibitors in normoxia, and hypoxia alone for one or two days. Under these conditions, we determined RNA editing level and the stabilization of HIF-1α in these cells. […] RNA editing levels increased to approximately 30% in cells treated with MXT, AtA5 or hypoxia alone on day 2. […] Furthermore, HIF-1α was stabilized only when the cells were subjected to hypoxia but not in normoxia in the presence or absence of the mitochondrial inhibitors (FIG. 32c).
(§1) For testing the mitochondrial inhibitors, HuT78 and NK-92 cells were cultured at […] cells per 0.5 ml in 24 well plates in normoxia with or without AtA5 and MXT or hypoxia alone for 2 days at 37° C.
(§2) Human IFN-γ was obtained from PeproTech and used at a concentration of 50 ng/ml. AtA5 (Cayman chemical #11898) and MXT (Sigma Aldrich #T5580) was used at a concentration of 1 μM.
(§3) Total RNA was isolated and reverse transcribed to generate cDNAs. DNA primers used for PCR were obtained from Integrated DNA Technologies and are noted in Table 6. Primers used for PCR of cDNA templates were designed such that the amplicons spanned multiple exons. […] To quantify RNA editing level, the major and minor chromatogram peak heights at putative edited nucleotides were quantified with Sequencher 5.0/5.1 software (Gene Codes, MI). […] For quantitative PCR to assess APOBEC3G and APOBEC3F gene expression, reactions using LightCycler™ 480 Probes Master and SYBR™ Green I dye were performed on a LightCycler™ 480 System (Roche). Quantification cycle (Cq) values were calculated by the instrument software using the maximum second derivative method, and the mean Cq value of duplicate PCR reactions was used for analysis.

[3] = tested on: NK-92 cells; assay: TM7SF3 C>U RNA editing in NK-92 cells treated with mitochondrial inhibitors; assay type: cell-based, human; settings: NK-92, normoxia, intermediate density, 24 well plates, inhibitor 1 μM, 2 days
Protocol: We treated NK-92 cells with normoxia with or without the mitochondrial inhibitors (AtA5 or MXT) or hypoxia alone at intermediate density in 24 well plates for 2 days. […] The reason behind the difference in hypoxia induced RNA editing level of HuT78 and NK-92 cells may be due to metabolic differences between the two cell lines.
as §1, §2
as §3, with “cDNAs.” for “cDNAs. DNA primers used for PCR were obtained from Integrated DNA Technologies and are noted in Table 6. Primers used for PCR of cDNA templates were designed such that the amplicons spanned multiple exons.”

T1 sequence (P31941 whole entry): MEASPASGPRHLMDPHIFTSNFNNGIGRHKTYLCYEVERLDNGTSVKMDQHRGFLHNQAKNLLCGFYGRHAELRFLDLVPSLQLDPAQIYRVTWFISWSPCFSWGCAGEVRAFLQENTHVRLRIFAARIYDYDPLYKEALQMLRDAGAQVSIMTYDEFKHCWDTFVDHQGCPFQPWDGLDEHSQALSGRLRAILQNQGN

Compound	c.136C>U editing of SDHB RNA by His6-tagged APOBEC3A [1]	RNA editing level (TM7SF3) ([2]; day 2)	RNA editing level (TM7SF3) [3] [%]	RNA editing level (TM7SF3) ([2]; day 1)	induction of RNA editing (TM7SF3) ([2]; one or two days)
c1cnc2c(c1)ccc1cccnc12 [1,10-phenanthroline]	abolished the editing				
COc1[nH]c(=O)c(C(=O)[C@@H](C)C[C@H](C)[C@@H](Cl)CCl)c(O)c1OC [AtA5, atpenin A5]		approximately 30%	~25		
CO/C(=C/C(N)=O)[C@H](C)[C@H](/C=C/c1csc(-c2csc([C@@H](C)/C=C/C=C/C(C)C)n2)n1)OC [MXT, myxothiazol]		approximately 30%	~25	approximately 10%	
C/C=C(/C)C(=O)O[C@H]1C(C)=C2[C@H]([C@@H]1OC(=O)CCCCCCC)[C@@](C)(OC(C)=O)C[C@H](OC(=O)CCC)[C@@]1(O)[C@H]2OC(=O)[C@@]1(C)O [Tg, Thapsigargin]					did not induce RNA editing
